{"source": "patent US4904672A", "about": "“Derivatives of 3-hydroxyazabenzo[b]thiophene useful as 5-lipoxygenase inhibitors” (Merck & Co., Inc., priority 1988, dated 1990)", "test_system": "Brewer's yeast-induced hyperalgesia (pain response)", "experiment": "Brewer's Yeast Hyperalgesia Assay in the rat", "type": "in vivo, rat (female Sprague-Dawley)", "settings": "3 mg/kg p.o.", "method": "In this assay, which is sensitive to inhibition by lipoxygenase and cyclooxygenase inhibitors, compounds of formula I reduced the pain response induced by Brewer's yeast (Table 1a).\nGroups of 10 female Sprague-Dawley rats, weighing 35-50 grams (Charles River Breeding Laboratories), were fasted overnight prior to testing. For each animal, 0.1 ml of the edema-inducing Brewer's yeast suspension (5% homogenate in physiological saline) was injected into the right hindpaw. Pain threshold was measured by applying pressure to the plantar surface of the hindpaw by means of a compressed air driven piston with a 2 mm. tip. Testing was carried out 3, 4, and 5 hours after the yeast injection. Compounds, prepared as homogenates in either 1% methylcellulose or aqueous vehicle, were administered orally 60 minutes before testing. A group of vehicle treated control animals was included in each experiment. Squeak pressure thresholds were measured and recorded for the compound and vehicle-treated groups of rats 3, 4, and 5 hours after administration of the Brewer's yeast (60 minutes after compound treatment). The estimation of analgesia was as follows: 1. the mean response pressure for the daily vehicle control group in the normal and inflammed foot was calculated; 2. for each compound treatment group, the number of animals with response pressures equal to or greater than 25 mm Hg was noted. These animals were considered to be analgesic."}
{"smiles": "COc1ccc(-c2sc3ncccc3c2OC(C)=O)cc1", "note": "[R=(CO)CH3, X1=H, X2=p-OCH3]", "values": [{"measurement": "% Inhibition (yeast hyperalgesia)", "result": 10, "unit": "%"}]}
{"smiles": "COc1ccc(-c2sc3ncccc3c2O)cc1", "note": "[R=H, X1=H, X2=p-OCH3]", "values": [{"measurement": "% Inhibition (yeast hyperalgesia)", "result": 60, "unit": "%"}]}
